These results are taken from article PMC10754118, “Lipophilic Nucleoside Triphosphate Prodrugs of Anti‐HIV Active Nucleoside Analogs as Potential Antiviral Compounds” (Advanced Science, 2023).

A short description of data set [1]: in vitro. To be noted: human, CEM/0 cells (wild-type CD4+ T-cells). As for the experimental part:
All TriPPPro‐compounds 10 and 20, as well as their parent nucleosides and the corresponding NTPs, were evaluated for their antiviral activity (expressed as EC50 values) against HIV‐1 (wild‐type CEM/0 cells) and HIV‐2 (wild‐type CEM/0 cells and thymidine kinase‐deficient (CEM/TK^−) cells) with concomitant determination of cytotoxicity in the same cell line (Table 3 ).

A short description of data set [2]: in vitro. The following applies: human. As for the experimental part: The hydrolysis properties of TriPPPro‐compounds 10 and 20 were evaluated in phosphate buffer saline (PBS, pH 7.3), pig liver esterase (PLE) or CEM/0 cell extracts. In both cases, hydrolysis products were analyzed by means of analytical RP18‐HPLC and the hydrolysis half‐lives (Table 1 , t1/2 ) of TriPPPro‐compounds 10 and 20 were calculated after complete consumption of the starting materials.
The hydrolysis of TriPPPro‐compounds 10 and 20 was carried out with CEM/0 cell extracts as well. […]
Part 6. Enzyme-Catalyzed Hydrolysis of TriPPPro-compounds 10 and 20 in CEM Cell […]
First prepare 3.0 mM hydrolysis solutions of Tri PPPro-compounds 10 and 20 in DMSO and H2O: 21 µL stock solution (50 mM in DMSO) and 154 µL DMSO, and 175 µL Milli-Q water. Three-twelve different samples (20 µL 3.0 mM hydrolysis solutions) were prepared in 2 mL Eppendorf® vials. Then, aliquots of 50 µL human CEM cell extracts were added to these samples and the reaction was started. The samples were incubated at 37 °C in a thermomixer for different time periods. The reaction was stopped by addition of 150 µL MeOH and kept on ice for 5 min. After centrifugation at 14,000 rpm for 12 min, the supernatants were filtered (Chromafil RC-20/15 MS, 0.2 μm) and stored in liquid nitrogen. When testing, aliquots of 60 µL (injection volume) were analyzed by analytical HPLC (HPLC Method). The calculation of t1/2 was obtained using Origin again.
(§1) Part 7. Hydrolysis of TriPPPro-compounds 10 and 20 in human plasma.
µL 3.0 mM hydrolysis solutions) were prepared in 2 mL Eppendorf® vials.

Data set [3] is described as follows: Chemical hydrolysis in phosphate buffer saline (PBS, pH 7.3). It counts as physicochemical. The following applies: PBS pH 7.3, 37 °C, read-out: PBS pH 7.3 t 1/2 (converted). As to the method:
(§2) Part 4. Chemical Hydrolysis of TriPPPro-compounds 10 and 20.
Second prepare 1.9 mM hydrolysis […]
(§3) Then, aliquots of 50 µL human

Another data set deals with HIV‐1 [HE]. The data set is described as follows: Anti-HIV activity, HIV-1 in wild-type CEM/0 cells. It counts as cell-based. The following applies: Human immunodeficiency virus 1, CCRF-CEM, read-out: Antiviral activity CEM/0 HIV‐1 [HE] EC50.
A further data set deals with pig liver esterase (PLE). The data set is described as follows: Hydrolysis with pig liver esterase (PLE). The data set is classed as in vitro ADME. To be noted: pig liver esterase (PLE) in PBS, PLE in PBS pH 7.3, 37 °C, read-out: PLE t 1/2 (converted).
From the text: Next, TriPPPro‐compounds 10 and 20 were exposed to PLE in PBS (pH 7.3) and the half‐lives of TriPPPro‐compounds 10 and 20 are listed in Table 1. […] In contrast, the cleavage of the AB (C4) masking group in TriPPPro‐compounds 10by–hy and 10bz–hz was triggered by ester hydrolysis and yielded the corresponding γ‐alkylated nucleoside triphosphate derivatives 20 (Figure 3B,D) and 21 (Figures S17 and S18, Supporting Information), respectively. […] Moreover, a very small amount of NDPs was observed, probably due to a reaction involving a nucleophilic reaction at the γ‐phosphate or γ‐phosphonate moiety (pathways d and f, Scheme 5). […]
as §2
Second prepare 1.9 mM hydrolysis
Part 5. Hydrolysis of TriPPPro-compounds 10 and 20 with PLE .
Second, 125 µL DMSO and 833 µL
62.5 µL of PLE solution in PBS (100
mixture was stored in the freezer (- 30 °C).
by analytical HPLC (HPLC Method).
similar to that for the chemical hydrolysis studies. […]
as §3

The next data set deals with HIV‐2 [ROD]. The data set is described as follows: Anti-HIV activity, HIV-2 in wild-type CEM/0 cells. It counts as cell-based. To be noted: Human immunodeficiency virus 2, CCRF-CEM, read-out: Antiviral activity CEM/0 HIV‐2 [ROD] EC50. As for the experimental part: (§4) Part 9. Anti-HIV activity assay.
(§5) The produce was used as previously reported. 5 Inhibition of HIV-1(IIIB)- and HIV-2(ROD)-induced cytopathogenicity in wild-type CEM/0 and thymidine kinase-deficient CEM/TK– cell cultures was measured in […]
(§6) containing appropriate dilutions of the test compounds. After 4−5 days of incubation at 37 °C in a CO2-controlled humidified atmosphere, CEM giant (syncytium) cell formation was examined microscopically. The […]
(§7) giant cell formation by 50%.
(§8) Part 10. Primer-extension assays. […]

The test system of a further data set is HIV‐2 [ROD)]. The data set is described as follows: Anti-HIV activity, HIV-2 in thymidine kinase-deficient CEM/TK^− cells. It counts as cell-based. As to the method: as §4, §5, §6, §7, §8
Data set [4] can be described thus: in vitro. As to the method: First prepare 50 mM solutions of TriPPPro-compounds 10 and 20 in DMSO. […]
First prepare 3.0 mM hydrolysis solutions of Tri PPPro-compounds 10 and 20 in DMSO and H2O: 21 µL stock solution (50 mM in DMSO) and 154 µL DMSO, and 175 µL Milli-Q water. Three-twelve different samples (20 […]
The calculation of t1/2 was obtained using Origin again.
as §1
µL 3.0 mM hydrolysis solutions) were prepared in 2 mL Eppendorf® vials. Then, aliquots of 50 µL human Plasma (Heparin or Citrate) were added to these samples and the reaction was started. The samples were […]
incubated at 37 °C in a thermomixer for different time periods. The reaction was stopped by addition of 150 µL MeOH and kept on ice for 5 min. After centrifugation at 14,000 rpm for 22 min, the supernatants were filtered (Chromafil RC-20/15 MS, 0.2 μm) and stored in liquid nitrogen. When testing, aliquots of 25 0r 30 µL (injection volume) were analyzed by analytical HPLC (HPLC Method). The calculation of t1/2 was obtained using Origin […]
Part 8. Preparation of cell extracts and human plasma. […]

[5] abbreviates: wild-type CEM/0 cells, mean ±SD n = 2–3.
The mark [6] stands for this setting: Human immunodeficiency virus 2, CEM-TK(-), thymidine kinase-deficient CEM/TK^− cells, mean ±SD n = 2–3; read-out: Antiviral activity CEM/TK^− HIV‐2 [ROD)] EC50.

Where two headings read alike, the source gives them in different places.

`CCCCCCCCCCCCCCCCCCOP(=O)(OCCCC)OP(=O)(O)OP(=O)(O)OC[C@H]1O[C@@H](n2cc(/C=C/Br)c(=O)[nH]c2=O)C[C@@H]1O` (stereo partly shown) [10gv] yielded a cytotoxic concentration (CC50) in “in vitro [1]” of 48 ± 4.2 µM. Besides, the half-life at 0.86 mM in the data set “in vitro [2]” is > 0.417 days. The half-life at 1.9 mM in data set [3] was > 83.3 days. The EC50 in the data set with HIV‐1 [HE] (setting [5]) was > 10 µM; with HIV‐2 [ROD] (setting [5]) it was 5.37 ± 0.69 µM; in the data set with HIV‐2 [ROD)] (setting [6]), 36.5 ± 34.7 µM. For the same molecule, the half-life at 0.45 mM with pig liver esterase (PLE) was > 6.25 days.

As to `CCCCCCCCCCCCCCCCCCP(=O)(OCc1ccc(OC(=O)CCCC)cc1)OP(=O)(O)OP(=O)(O)OC[C@H]1O[C@@H](n2cc(Cl)c(=O)[nH]c2=O)C[C@@H]1F` (stereo partly shown) [10dz], it took 54.9 µM to reach half-maximal cytotoxicity in “in vitro [1]” (CC50). For the same molecule, in the data set “in vitro [2]”, the half-life at 0.86 mM was > 0.417 days. Further, in data set [3], the half-life at 1.9 mM was 27.9 days. For the same molecule, the results for the EC50 in the data set with HIV‐1 [HE] (setting [5]), in the data set with HIV‐2 [ROD] (setting [5]) and in the data set on HIV‐2 [ROD)] (setting [6]) were 2.02 ± 0.8 µM, 0.51 ± 0.14 µM and 4.66 ± 3.42 µM, respectively. Further, in the data set with pig liver esterase (PLE), the half-life at 0.45 mM was 0.0542 days.

As to `Cc1cn([C@H]2C[C@H](N=[N+]=[N-])[C@@H](COP(=O)(O)O)O2)c(=O)[nH]c1=O` [AZTMP, reference compound], in “in vitro [4]” (citrate-stabilized human plasma, 37 °C), the “Plasma (Citrate) t 1/2” value came to 0.188 days. The “Plasma (Heparin) t 1/2” value in “in vitro [4]” (heparin-stabilized human plasma, 37 °C) turned out to be 0.0833 days. Also, the “t 1/2 in human plasma (over heparin and citrate plasma)” value in “in vitro [4]” (human plasma 37 °C, heparin and citrate taken together) lay within 0.0833 to 0.188 days.

`CCCCCCCCCCCCCCCCCCP(=O)(OCc1ccc(OC(=O)CCCC)cc1)OP(=O)(O)OP(=O)(O)OC[C@H]1O[C@@H](n2cc(/C=C/Br)c(=O)[nH]c2=O)C[C@@H]1O` (stereo partly shown) [10gz] returned a CC50 in “in vitro [1]” of 43.9 ± 8.3 µM. For the same molecule, the half-life at 1.9 mM in data set [3] was > 62.5 days. Further, the EC50 with HIV‐1 [HE] (setting [5]) stood at 7.58 ± 2.2 µM; in the data set with HIV‐2 [ROD] (setting [5]) it was 8.01 ± 2.81 µM; in the data set on HIV‐2 [ROD)] (setting [6]), 11.2 ± 4.99 µM.

`CCCCCCCCCCCCCCCCCCP(=O)(OCCCC)OP(=O)(O)OP(=O)(O)OC[C@H]1O[C@@H](n2ccc(=O)[nH]c2=O)C[C@@H]1F` (stereo partly shown) [10fx] had a CC50 in the data set “in vitro [1]” of 67.3 ± 33.8 µM. In addition, the half-life at 1.9 mM in data set [3] is > 83.3 days. For the same molecule, the EC50 was found to be 0.041 ± 0.044 µM in the data set on HIV‐1 [HE]; 0.029 ± 0.0071 µM with HIV‐2 [ROD]; 0.15 ± 0.06 µM with HIV‐2 [ROD)] (Human immunodeficiency virus 2, CEM-TK(-), read-out: Antiviral activity CEM/TK^− HIV‐2 [ROD)] EC50).

For the molecule `CCCCCCCCCCCCCCCCCCOP(=O)(OCc1ccc(OC(=O)CCCC)cc1)OP(=O)(O)OP(=O)(O)OC[C@H]1O[C@@H](n2ccc(=O)[nH]c2=O)C[C@@H]1F` (stereo partly shown) [10fy], in “in vitro [1]”, the CC50 came to 43.3 ± 5.1 µM. In data set [3], the half-life at 1.9 mM is 15 days. The results for the EC50 with HIV‐1 [HE] (setting [5]), in the data set on HIV‐2 [ROD] (setting [5]) and with HIV‐2 [ROD)] (setting [6]) were 0.026 ± 0.028 µM, 0.014 ± 0.016 µM and 0.36 ± 0.24 µM, respectively.

`CCCCCCCCCCCCCCCCCCOP(=O)(OCC(CC)CCCC)OP(=O)(O)OP(=O)(O)OC[C@@H]1O[C@H](n2cc(F)c(N)nc2=O)CS1` (stereo partly shown) [10cw] came in with a 50% cytotoxic concentration (CC50) in “in vitro [1]” of 64 ± 23.6 µM. Further, the half-life at 1.9 mM in data set [3] is > 83.3 days. In addition, the values for the EC50 in the data set on HIV‐1 [HE] (setting [5]), with HIV‐2 [ROD] (setting [5]) and with HIV‐2 [ROD)] (setting [6]) were 0.21 ± 0.06 µM, 0.18 ± 0.1 µM and 0.12 ± 0.1 µM, respectively.
